Literature values, collected in patent US20140107050A1, “INCREASING BIOAVAILABILITY OF N-COUMAROYLDOPAMINE THROUGH CO-ADMINISTRATION WITH A CATECHOL-O-[…] (COMT) INHIBITOR” (Redefine Nutrition, LLC, priority 2012, published 2014).

Assays:
[1] = molecular target: T1, catechol-o-methyltransferase (COMT) (Homo sapiens, UniProt P21964); conditions: values taken from cited literature; read-out: half maximal inhibitory concentration (IC50) for COMT inhibition
T1 sequence (P21964 1-271): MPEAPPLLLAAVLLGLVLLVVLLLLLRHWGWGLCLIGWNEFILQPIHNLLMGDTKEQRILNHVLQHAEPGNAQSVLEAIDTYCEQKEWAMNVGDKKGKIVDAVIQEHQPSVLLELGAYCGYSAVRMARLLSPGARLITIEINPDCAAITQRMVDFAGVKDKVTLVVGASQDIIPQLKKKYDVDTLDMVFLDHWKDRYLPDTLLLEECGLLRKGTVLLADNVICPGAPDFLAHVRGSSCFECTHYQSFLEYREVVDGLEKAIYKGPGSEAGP

beta-adrenoreceptor = molecular target: T2, beta-adrenoreceptor (Homo sapiens, UniProt P07550); conditions: recent in vitro studies (Park 2005)
T2 construct: increase cAMP via beta 2-adrenoreceptors in myelocytic U937 cells; endogenous in cells; host or cells: U937 cells
T2 sequence (P07550 whole entry): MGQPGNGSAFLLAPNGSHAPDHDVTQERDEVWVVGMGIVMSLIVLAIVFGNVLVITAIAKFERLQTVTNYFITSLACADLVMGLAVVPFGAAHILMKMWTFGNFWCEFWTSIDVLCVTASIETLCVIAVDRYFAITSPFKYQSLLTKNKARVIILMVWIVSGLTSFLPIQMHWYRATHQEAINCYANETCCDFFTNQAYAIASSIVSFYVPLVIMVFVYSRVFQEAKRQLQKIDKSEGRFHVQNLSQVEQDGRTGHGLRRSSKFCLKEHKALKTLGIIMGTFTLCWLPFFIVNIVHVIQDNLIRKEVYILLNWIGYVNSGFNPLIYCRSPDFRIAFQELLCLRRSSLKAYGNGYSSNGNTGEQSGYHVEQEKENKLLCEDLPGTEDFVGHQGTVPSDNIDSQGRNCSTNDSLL

| IC50 [1] [nM] | beta-adrenoreceptor agonist activity (beta-adrenoreceptor) | SMILES |
| --- | --- | --- |
| ~500 | – | O=c1c(O)c(-c2ccc(O)c(O)c2)oc2cc(O)cc(O)c12 [quercetin] |
| 1300 to 1400 | – | O=C(/C=C/c1ccc(O)c(O)c1)O[C@@H]1C[C@](O)(C(=O)O)C[C@@H](O)[C@H]1O [chlorogenic acid] |
| – | acts as a beta-adrenoreceptor agonist | O=C(/C=C/c1ccc(O)cc1)NCCc1ccc(O)c(O)c1 [N-coumaroyldopamine] |
